Biological target: AT2 Receptor (AT2R) (Homo sapiens (Human), UniProt P50052)
Assay: Inhibitory activity on AT2 receptor (Tag-lite HTRF, Tb-labeled AT2R cells, angiotensin receptor red agonist)
Type: binding
Conditions: 1 h at room temperature

Chain of AT2 Receptor (AT2R) (P50052 whole entry): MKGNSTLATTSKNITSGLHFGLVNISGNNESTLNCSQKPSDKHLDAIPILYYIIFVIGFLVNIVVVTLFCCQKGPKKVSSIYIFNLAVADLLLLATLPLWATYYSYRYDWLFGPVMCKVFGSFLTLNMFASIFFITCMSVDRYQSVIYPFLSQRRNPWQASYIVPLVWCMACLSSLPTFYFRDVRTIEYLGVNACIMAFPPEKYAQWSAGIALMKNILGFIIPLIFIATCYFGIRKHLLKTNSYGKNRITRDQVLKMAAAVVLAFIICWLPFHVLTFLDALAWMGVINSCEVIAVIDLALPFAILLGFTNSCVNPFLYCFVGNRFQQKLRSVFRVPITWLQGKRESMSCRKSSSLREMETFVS

SMILES: CN1C(=O)c2ccccc2N(C(=O)N2CCN(C(=O)N(c3ccccc3)c3ccccc3)C[C@H]2C(=O)O)c2ccccc21 [Compound C96]
- IC50: 13.1 nM

SMILES: COc1ccccc1N(C(=O)N1CCN(C(=O)N2c3ccccc3C(=O)N(C)c3ccccc32)[C@H](C(=O)O)C1)c1ccccc1OC [Compound C97, (S)-4-(bis(2-methoxyphenyl)carbamoyl)-1-(10-methyl-11-oxo-10,11-dihydro-5H-dibenzo [b,e][1,4]diazepine-5-carbonyl)piperazine-2-carboxylic acid]
- IC50: 138 nM

SMILES: CCN1C(=O)c2ccccc2N(C(=O)N2CCN(C(=O)N(c3ccccc3)c3ccccc3)C[C@H]2C(=O)O)c2ccccc21 [Compound C98, (S)-4-(diphenylcarbamoyl)-1-(10-ethyl-11-oxo-10,11-dihydro-5H-dibenzo[b,e][1,4]diazepine-5-carbonyl) piperazine-2-carboxylic acid]
- IC50: 8.18 nM

SMILES: CN(C)S(=O)(=O)NC(=O)[C@@H]1CN(C(=O)N(c2ccccc2)c2ccccc2)CCN1C(=O)N1c2ccccc2CC(=O)c2ccccc21 [Compound C103]
- IC50: 334 nM

SMILES: O=C1Cc2ccccc2N(C(=O)N2CCN(C(=O)N(c3ccccc3)c3ccccc3)C[C@H]2c2nn[nH]n2)c2ccccc21 [Compound C104, (S)-4-(10-oxo-10,11-dihydro-5H-dibenzo[b,f]azepine-5-carbonyl)-N, N-diphenyl-3-(1H-tetrazol-5-yl)piperazine-1-carboxamide]
- IC50: 298 nM

SMILES: O=C1Cc2ccccc2N(C(=O)N2CCN(C(=O)N(c3ccc(F)cc3)c3ccc(F)cc3)C[C@H]2C(=O)O)c2ccccc21 [Compound C105, (S)-4-(bis(4-fluorinephenyl)carbamoyl)-1-(10-oxo-10,11-dihydro-5H-dibenzo [b,f]azepine-5-carbonyl)piperazine-2-carboxylic acid]
- IC50: 161 nM

SMILES: CC(C(=O)N1CCN(C(=O)N2c3ccccc3CC(=O)c3ccccc32)[C@H](C(=O)O)C1)(c1ccccc1)c1ccccc1 [Compound C106, (S)-4-(2,2-diphenylpropionyl)-1-(10-oxo-10,11-dihydro-5H-dibenzo [b,f]azepine-5-carbonyl) piperazine-2-carboxylic acid]
- IC50: 282 nM

SMILES: COc1cccc(N(C(=O)N2CCN(C(=O)N3c4ccccc4CC(=O)c4ccccc43)[C@H](C(=O)O)C2)c2cccc(OC)c2)c1 [Compound C108, (S)-4-(bis(3-methoxylphenyl)carbamoyl)-1-(10-oxo-10,11-dihydro-5H-dibenzo [b,f]azepine-5-carbonyl)piperazine-2-carboxylic acid]
- IC50: 51.1 nM

SMILES: COc1ccccc1N(C(=O)N1CCN(C(=O)N2c3ccccc3CC(=O)c3ccccc32)[C@H](C(=O)NS(=O)(=O)N(C)C)C1)c1ccccc1OC [Compound C111, (S)-N^3-(N,N-dimethylsulphamoyl)-N^1,N^1-bis (2-methoxyphenyl)-4-(10-oxo-10,11-dihydro-5H-dibenzo[b,f]azepine-5-carbonyl) piperazine-1,3-dicarboxamide]
- IC50: 229 nM

SMILES: COc1ccccc1N(C(=O)N1CCN(C(=O)N2c3ccccc3C=Cc3ccccc32)[C@H](C(=O)O)C1)c1ccccc1 [Compound C113, (S)-1-(5H-dibenzo[b,f]azepine-5-carbonyl)-4-((2-methoxylphenyl) (phenyl)carbamoyl) piperazine-2-carboxylic acid]
- IC50: 7.37 nM

SMILES: O=C1Cc2ccccc2N(C(=O)N2CCN(C(=O)N(c3ccccc3)c3ccccc3)C[C@H]2C(=O)NO)c2ccccc21 [Compound C123]
- IC50: 503 nM

SMILES: O=C(O)[C@@H]1CN(C(=O)N2CCC[C@@H]2c2ccccc2)CCN1C(=O)N(c1ccccc1)c1ccccc1 [Compound C128, (S)-1-(diphenylcarbamoyl)-4-((R)-2-phenylpyrrolidine-1-carbonyl) piperazine-2-carboxylic acid]
- IC50: 12.4 nM

SMILES: O=C(O)[C@@H]1CN(C(=O)N(c2ccccc2)c2ccccc2)CCN1C(=O)N1CCC[C@H]1c1ccccc1 [Compound C129, (S)-4-(diphenylcarbamoyl)-1-((S)-2-phenylpyrrolidinyl-1-carbonyl)piperazine-2-carboxylic acid]
- IC50: 98.6 nM

SMILES: CN(Cc1ccccc1)C(=O)N1CCN(C(=O)C(C)(c2ccccc2)c2ccccc2)[C@H](C(=O)O)C1 [Compound C133, (S)-4-(benzyl(methyl)carbamoyl)-1-(2,2-diphenylpropionyl) piperazine-2-carboxylic acid]
- IC50: 24.3 nM

SMILES: CCN(Cc1ccc(C)s1)C(=O)N1CCN(C(=O)N(c2ccccc2)c2ccccc2)[C@H](C(=O)O)C1 [Compound C134, (S)-1-(diphenylcarbamoyl)-4-(ethyl((5-methylthiophen-2-yl)methyl)carbamoyl) piperazine-2-carboxylic acid]
- IC50: 18.5 nM

SMILES: Cc1ccc(CN(C)C(=O)N2CCN(C(=O)N(c3ccccc3)c3ccccc3)[C@H](C(=O)O)C2)s1 [Compound C135, (S)-1-(diphenylcarbamoyl)-4-(methyl((5-methylthiophen-2-yl)methyl)carbamoyl)piperazine-2-carboxylic acid]
- IC50: 28.2 nM

SMILES: CCN(Cc1csc(C)c1)C(=O)N1CCN(C(=O)N(c2ccccc2)c2ccccc2)[C@H](C(=O)O)C1 [Compound C137, (S)-1-(diphenylcarbamoyl)-4-(ethyl((5-methylthiophen-3-yl)methyl)carbamoyl) piperazine-2-carboxylic acid]
- IC50: 36.5 nM

SMILES: O=C(O)[C@@H]1CN(C(=O)OCc2cccs2)CCN1C(=O)N(c1ccccc1)c1ccccc1 [Compound C140, (S)-1-(diphenylcarbamoyl)-4-((thiophene-2-ylmethoxy)carbonyl) piperazine-2-carboxylic acid]
- IC50: 331 nM

SMILES: Cc1cc(CN(C)C(=O)N2CCN(C(=O)N(c3ccccc3)c3ccccc3)[C@H](C(=O)O)C2)sc1C [Compound C144, (S)-4-(((4,5-dimethylthiophen-2-yl)methyl)(methyl)carbamoyl)-1-(diphenylcarbamoyl) piperazine-2-carboxylic acid]
- IC50: 98.1 nM

SMILES: Cc1ccc(CN(C(=O)N2CCN(C(=O)N(c3ccccc3)c3ccccc3)[C@H](C(=O)O)C2)C2CC2)s1 [Compound C145, (S)-4-(cyclopropyl((5-methylthiophen-2-yl)methyl)carbamoyl)-1-(diphenylcarbamoyl) piperazine-2-carboxylic acid]
- IC50: 3.61 nM

SMILES: Cc1cc(CN(C(=O)N2CCN(C(=O)N(c3ccccc3)c3ccccc3)[C@H](C(=O)O)C2)C2CC2)cs1 [Compound C146, (S)-4-(cyclopropyl((5-methylthiophen-3-yl)methyl)carbamoyl)-1-(diphenylcarbamoyl) piperazine-2-carboxylic acid]
- IC50: 14.2 nM

SMILES: CS(=O)(=O)NC(=O)[C@@H]1CN(C(=O)N2c3ccccc3CC(=O)c3ccccc32)CCN1C(=O)N(c1ccccc1)c1ccccc1 [Compound C149]
- IC50: 290 nM

SMILES: CCN(Cc1csc(Cl)c1)C(=O)N1CCN(C(=O)N(c2ccccc2)c2ccccc2)[C@H](C(=O)O)C1 [Compound C150, (S)-4-(((5-chlorothiophene-3-yl)methyl)(ethyl)carbamoyl)-1-(diphenylcarbamoyl) piperazine-2-carboxylic acid]
- IC50: 26.1 nM

SMILES: Cc1ccc(CN(C(=O)N2CCN(C(=O)C(c3ccccc3)c3ccccc3)[C@H](C(=O)O)C2)C2CC2)s1 [Compound C153, (S)-4-(cyclopropyl((5-methylthiophen-2-yl)methyl)carbamoyl)-1-(2,2-diphenylacetyl)piperazine-2-carboxylic acid]
- IC50: 5.47 nM

— patent US11905274B2, “Receptor inhibitors, pharmaceutical compositions comprising the same and use thereof” (BEIJING TIDE PHARMACEUTICAL CO., LTD., priority 2018, dated 2024)
